Patent US20240252432A1, “COMPOSITIONS, METHODS AND SYSTEMS FOR AEROSOL DRUG DELIVERY” (ASTRAZENECA PHARMACEUTICALS LP, priority 2021, published 2024)
Read-outs that look alike come from different tables or passages of the source.

What was measured:
[1] = cited from earlier work
[2] = Particle size distribution by laser diffraction; assay type: physicochemical
Excerpt: When referred to herein, the term “optical diameter” indicates the size of a particle as measured by the Fraunhofer diffraction mode using a laser diffraction particle size analyzer equipped with a dry powder dispenser (e.g., Sympatec GmbH, Clasthal-Zellerfeld, Germany).
Suspending particles were manufactured by spray drying an emulsion of PFOB (perfluorooctyl bromide) and water stabilized by DSPC (1,2-Distearoyl-sn-Glycero-3-Phosphocholine). […] The particle size distribution of the suspending particles was determined by laser diffraction.
Active agent particles formed of budesonide, 16,17-(butylidenebis(oxy))-11,21-dihydroxy-(11-β,16-α)-pregna-1,4-diene-3,20-dione, were formed by micronizing budesonide using a jet mill. The particle size distribution of the budesonide (BD) was determined by laser diffraction.

[3] = Aerodynamic particle size distribution by NGI of BFF formulations (Example 4); assay type: physicochemical; settings: dual co-suspension of budesonide and formoterol in HFO-1234ze(E); stored valve down, protected, 25° C./60% RH
[4] = Aerodynamic particle size distribution by NGI of BDA formulations (Example 5); assay type: physicochemical; settings: dual co-suspension of budesonide and albuterol in HFO-1234ze(E); stored valve down, protected, 25° C./60% RH

## FCC(F)(F)F [HFA-134a, 1,1,1,2-tetrafluoroethane]
[1]; @25
  Water Solubility in Propellant: 1100@25 ppm

## C[N+]1(C)CCC(OC(=O)C(O)(c2ccccc2)C2CCCC2)C1.[Br-] (centres unmarked) [glycopyrrolate, Pyrrolidinium, 3-((cyclopentylhydroxyphenylacetyl)oxy)-1,1-dimethyl-, bromide]
[2]
  optical diameter below which 50% by volume of the particles lie: smaller than 2.1 μm
  optical diameter below which 90% by volume of the particles lie: smaller than 5 μm

## C=C(F)C(F)(F)F [HFO-1234yf, 2,3,3,3-Tetrafluoropropene]
[1]; @24
  Water Solubility in Propellant: 200@24 ppm

## CC(F)F [HFC-152a, 1,1-Difluoroethane]
[1]; @25
  Water Solubility in Propellant: 2100@25 ppm

## CCCC1O[C@@H]2C[C@H]3[C@@H]4CCC5=CC(=O)C=C[C@]5(C)[C@H]4[C@@H](O)C[C@]3(C)[C@]2(C(=O)CO)O1 (stereo partly drawn) [budesonide, 16,17-(butylidenebis(oxy))-11,21-dihydroxy-(11-β,16-α)-pregna-1,4-diene-3,20-dione]
[3]
  stability of aPSD by NGI: stable for twelve months
[4]
  stability of aPSD by NGI: stable for twelve months

## CCCCCCCCCCCCCCCCCC(=O)OC[C@H](COP(=O)([O-])OCC[N+](C)(C)C)OC(=O)CCCCCCCCCCCCCCCCC [DSPC, 1,2-Distearoyl-sn-glycero-3-phosphocholine]
[3]
  stability of aPSD by NGI: stable for twelve months

## FC(C(F)(F)F)C(F)(F)F [HFA-227ea, 1,1,1,2,3,3,3-Heptafluoropropane]
[1]; @25
  Water Solubility in Propellant: 610@25 ppm

## FC=CC(F)(F)F [HFO-1234ze, 1,3,3,3-tetrafluoropropene]
[1]; @20
  Water Solubility in Propellant: 225@20 ppm

## COc1ccc(CC(C)NCC(O)c2ccc(O)c(NC=O)c2)cc1.O=C(O)/C=C/C(=O)O (racemic) [formoterol fumarate, (±)-2-hydroxy-5-[(1RS)-1-hydroxy-2-[[(1RS)-2-(4-methoxyphenyl)-1-methylethyl]-amino]ethyl]formanilide fumarate]
[2]
  optical diameter below which 50% by volume of the particles lie: smaller than 1.6 μm
  optical diameter below which 90% by volume of the particles lie: smaller than 3.9 μm

## albuterol sulfate
[2]
  optical diameter below which 50% by volume of the particles lie: smaller than 1.5 μm
  optical diameter below which 90% by volume of the particles lie: smaller than 3.3 μm
